Results taken from PMC7179312 (Antimicrobial Agents and Chemotherapy, 2020).

Columns and labels:
KPC-2 [1] = biological target: T1, KPC-2 (Klebsiella pneumoniae, UniProt Q9F663); details: NCF hydrolysis; cited from earlier work
T1 construct: 6xHis (C); made in house; host or cells: E. coli BL21(DE3) pLys, pET28a

[2] = system: P. aeruginosa PAM1154 carrying pUCP24-KPC-2 (PAM4135); test: MIC, CLSI broth microdilution; assay type: cell-based; details: Pseudomonas aeruginosa; PAM4135, pUCP24-KPC-2; drug alone
Text: The effects of KPC mutations on resistance to various antibiotics were investigated. For these studies, pUCP24 plasmids carrying wild-type and mutant blaKPC-2 genes as well as the pUCP24 vector were transformed into PAM1154, an efflux-deficient strain of Pseudomonas aeruginosa. In this host, the effect of β-lactamases on β-lactam MIC is amplified due to the slowed uptake of β-lactams across the low-permeability outer membrane without interference by efflux of either β-lactams or BLIs. Consequently, this host allows detection of β-lactamase activity (as an MIC increase) of low-catalytic-efficiency enzymes that rely heavily on the low permeability of the outer membrane. Using the strain that lacks efflux pumps ensures no interference from efflux in interpreting results. We next evaluated the steady-state protein expression levels in bacterial cells.
For microbiological studies, wild-type blaKPC-2 and its mutant variants were cloned into the shuttle vector pUCP24. Resulting plasmids were transformed in the efflux-deficient strain of P. aeruginosa PAM1154 using selection on 15 μg/ml of gentamicin. Using a strain of P. aeruginosa as opposed to E. coli as a host for various cloned genes was based on the following consideration. As well documented elsewhere ([41]), P. aeruginosa has a low-permeability outer membrane; consequently, the effect of β-lactamases on MIC is amplified in P. aeruginosa compared to that in E. coli due to the slowed uptake of β-lactams. Thus, this host is appropriate to detect β-lactamase activity (as an MIC increase) of low-catalytic-efficiency enzymes that rely heavily on low permeability of the outer membrane. […] MICs were determined using the Clinical and Laboratory Standards Institute (CLSI) broth microdilution method as described in CLSI document M07-A11 ([42]). […] BLI potency was defined as PV50 (PV, potentiation value). PV50 is the minimal concentration of a BLI that is required to reduce the antibiotic MIC to the middle of the MIC range (E50) where the highest MIC is the MIC for a KPC-producing strain with no inhibitor added and the lowest MIC is the MIC for the vector-only strain, corresponding to the complete inhibition of KPC. E50 is calculated as the square root of the product of the antibiotic MICs for the KPC-producing and the vector-only strains.

[3] = system: P. aeruginosa PAM1154 carrying KPC-2::D179Y (PAM4639); test: Checkerboard potentiation of antibiotic activity by BLIs; assay type: cell-based, Pseudomonas aeruginosa; details: for Beta-lactam MIC in the presence of BLI: PAM4639 KPC-2 D179Y
KPC-2 L169P = biological target: T2, KPC-2 L169P (Klebsiella pneumoniae, UniProt Q9F663, L168P); test: Steady-state Ki with nitrocefin as substrate (method of Waley); assay type: biochemical; details: NCF substrate, 10 min preincubation, 37°C
T2 construct: 6xHis (C); made in house; host or cells: E. coli (pET28a construct; BL21(DE3) pLys is named only for wild type and D179Y)

KPC-2 D179Y = biological target: T3, KPC-2 D179Y (Klebsiella pneumoniae, UniProt Q9F663, D178Y); test: IC50 of inhibition of ceftazidime hydrolysis; assay type: biochemical
T3 construct: 6xHis (C); made in house; host or cells: E. coli BL21(DE3) pLys, pET28a
Protocol: (§1) Enzymes were mixed with BLIs at concentrations varying from 160 to 0.0027 μM in buffer A and incubated for 10 min, and 100 μM (for wild-type KPC-2) or 10 μM (for the D179Y mutant) CFTZ was subsequently added. Substrate cleavage profiles were recorded at 260 nm every 10 s for 10 min. Initial rates of reaction were calculated and exported to Prism software to calculate IC50s using the “dose-response – inhibition, variable slope (four parameters)” equation.

KPC-2 [4] = biological target: T1, KPC-2; test: IC50 of inhibition of ceftazidime hydrolysis; assay type: biochemical
Protocol: as §1

[5] = system: P. aeruginosa PAM1154 carrying pUCP24 vector (PAM4175); test: Checkerboard potentiation of antibiotic activity by BLIs; assay type: cell-based, Pseudomonas aeruginosa

O=C(O)C[C@@H]1CC[C@H](NC(=O)Cc2cccs2)B(O)O1 [Vaborbactam, vaborbactam]
Kd (KPC-2 [1]): 8 nM | k2/K (KPC-2 [1]): 5.5 ± 0.5 × 10^3 M^−1 s^−1 | k−2 (KPC-2 [1]): 4.3 ± 0.6 × 10^−5 s^−1 | MIC [2]: > 256 µg/mL | PV50 ([3]; PAM4639 KPC-2::D179Y, potentiation of cefepime): 1 µg/mL | PV50 ([3]; PAM4639 KPC-2::D179Y, potentiation of ceftazidime): 1 µg/mL | PV50 ([3]; PAM4639 KPC-2::D179Y, potentiation of piperacillin): 1 µg/mL | Ki (KPC-2 L169P): 190 ± 20 nM | IC50 (KPC-2 D179Y): 1900 ± 300 nM | IC50 (KPC-2 [4]): 940 ± 20 nM

CO/N=C(\C(=O)N[C@@H]1C(=O)N2C(C(=O)[O-])=C(C[N+]3(C)CCCC3)CS[C@H]12)c1csc(N)n1 [Cefepime, cefepime]
MIC [2]: 256 µg/mL | Antibiotic MIC with avibactam at 4 μg/ml ([3]; PAM4639 KPC-2::D179Y, avibactam 4 μg/ml): 2 µg/mL | Antibiotic MIC, No BLI ([3]; PAM4639 KPC-2::D179Y, no BLI): 32 µg/mL | Antibiotic MIC with vaborbactam at 8 μg/ml ([3]; PAM4639 KPC-2::D179Y, vaborbactam 8 μg/ml): 0.25 µg/mL | Beta-lactam MIC in the presence of BLI ([3]; avibactam 0 µg/ml): 32 µg/mL | Beta-lactam MIC in the presence of BLI ([3]; avibactam 0.008 µg/ml): 32 µg/mL | Beta-lactam MIC in the presence of BLI ([3]; avibactam 0.031 µg/ml): 32 µg/mL | Beta-lactam MIC in the presence of BLI ([3]; avibactam 0.06 µg/ml): 32 µg/mL | Beta-lactam MIC in the presence of BLI ([3]; avibactam 0.5 µg/ml): 16 µg/mL | Beta-lactam MIC in the presence of BLI ([3]; avibactam 1 µg/ml): 4 µg/mL | Beta-lactam MIC in the presence of BLI ([3]; avibactam 2 µg/ml): 4 µg/mL | Beta-lactam MIC in the presence of BLI ([3]; avibactam 4 µg/ml): 2 µg/mL | Beta-lactam MIC in the presence of BLI ([3]; avibactam 8 µg/ml): 1 µg/mL | Beta-lactam MIC in the presence of BLI ([3]; avibactam 16 µg/ml): 0.5 µg/mL | Beta-lactam MIC in the presence of BLI ([3]; vaborbactam 0 µg/ml): 32 µg/mL | Beta-lactam MIC in the presence of BLI ([3]; vaborbactam 0.008 µg/ml): 32 µg/mL | Beta-lactam MIC in the presence of BLI ([3]; vaborbactam 0.031 µg/ml): 32 µg/mL | Beta-lactam MIC in the presence of BLI ([3]; vaborbactam 0.06 µg/ml): 32 µg/mL | Beta-lactam MIC in the presence of BLI ([3]; vaborbactam 0.5 µg/ml): 8 µg/mL | Beta-lactam MIC in the presence of BLI ([3]; vaborbactam 1 µg/ml): 1 µg/mL | Beta-lactam MIC in the presence of BLI ([3]; vaborbactam 2 µg/ml): 0.5 µg/mL | Antibiotic MIC with avibactam at 4 μg/ml ([5]; avibactam 4 μg/ml): 0.125 µg/mL | Antibiotic MIC, No BLI ([5]; no BLI): 0.125 µg/mL | Antibiotic MIC with vaborbactam at 8 μg/ml ([5]; vaborbactam 8 μg/ml): 0.125 µg/mL
